≈ marks a conversion by molar mass, not a printed value. Where “and” joins values, the source holds several entries; their conditions need not be identical. Equal values may be shown once. Where a name gives a salt, the structure may show the parent alone.
Tests used:
[1] = test system: MCF-7 (estrogen receptor positive breast cancer); assay: In vitro anticancer assay (SRB), MCF-7; type: cell-based, human
Method: (§1) All stock cultures were grown in T-25 flasks. Freshly trypsinized cell suspensions were seeded in 96-well microtiter plates at densities of 1500-7500 cells per well with compounds added from DMSO-diluted stock. After 3 days in culture, attached cells were fixed with cold 50% trichloroacetic acid and then stained with 0.4% sulforhodamine B (SRB). The absorbency at 562 nm was measured using a microplate reader after solubilizing the bound dye.
as §1, with “Biological assay. All” for “All”, “cultures are” for “cultures were”, “96-well microtitre” for “96-well microtiter”

[2] = test system: MDA-MB-231 (estrogen receptor negative breast cancer); assay: In vitro anticancer assay (SRB), MDA-MB-231; type: cell-based, human
Method: as §1
as §1, with “Biological assay. All” for “All”, “cultures are” for “cultures were”, “96-well microtitre” for “96-well microtiter”

[3] = test system: ZR-75-1 (estrogen receptor positive breast cancer); assay: In vitro anticancer assay (SRB), ZR-75-1; type: cell-based, human; conditions: concentration that reduces cell growth by 50%, 3 days in culture
Method: as §1
as §1, with “Biological assay. All” for “All”, “cultures are” for “cultures were”, “96-well microtitre” for “96-well microtiter”

[4] = test system: HS 587-T (estrogen receptor negative breast cancer); assay: In vitro anticancer assay (SRB), HS 587-T; type: cell-based, human; conditions: concentration that reduces cell growth by 50%, 3 days in culture
Method: as §1
as §1, with “Biological assay. All” for “All”, “cultures are” for “cultures were”, “96-well microtitre” for “96-well microtiter”

[5] = test system: SK-BR-3 (HER-2-overexpressing breast cancer); assay: In vitro anticancer assay (SRB), SK-BR-3; type: cell-based, human
Method: (§2) In Vitro Anticancer Assay (Nakanishi, Y. et al., J. Med. Chem. 2003, 46, 3185). All stock cultures were grown in T-25 flasks. Freshly trypsinized cell suspensions were seeded in 96-well microtiter plates at densities of 1500-7500 cells per well with compounds added from DMSO-diluted stock. After 3 days in culture, attached cells were fixed with cold 50% trichloroacetic acid and then stained with 0.4% sulforhodamine B (SRB). The absorbency at 562 nm was measured using a microplate reader after solubilizing the bound dye. The mean ED50 is the concentration of agent that reduces cell growth by 50% under the experimental conditions and is the average from at least three independent determinations that were reproducible and statistically significant (FIG. 2). The following human tumor cell lines were used in the assay: A549 (non small cell lung cancer), MCF-7 (estrogen receptor positive breast cancer), ZR-75-1 (estrogen receptor positive breast cancer), MDA-MB-231 (estrogen receptor negative breast cancer), HS 587-T (estrogen receptor negative breast cancer), SK− BR-3 (HER-2-overexpressing breast cancer), A431 (EGFRoverexpressing skin cancer), LN-CaP (AR-dependent prostate cancer), SW620 (colon cancer), PC-3 (prostate cancer), KB (nasopharyngeal carcinoma), KB-VIN (vincristine-resistant KB subline). All cell lines were obtained from the Lineberger Comprehensive Cancer Center (UNC-CH) or from ATCC (Rockville, Md.) and were cultured in RPMI-1640 medium supplemented with 25 mMHEPES, 0.25% sodium bicarbonate, 10% fetal bovine serum, and 100 μg/mL kanamycin.
(§3) Biological assay. All stock cultures are grown in T-25 flasks. Freshly trypsinized cell suspensions were seeded in 96-well microtitre plates at densities of 1500-7500 cells per well with compounds added from DMSO-diluted stock. After 3 days in culture, attached cells were fixed with cold 50% trichloroacetic acid and then stained with 0.4% sulforhodamine B (SRB). The absorbency at 562 nm was measured using a microplate reader after solubilizing the bound dye. The mean ED50 is the concentration of agent that reduces cell growth by 50% under the experimental conditions and is the average from at least three independent determinations that were reproducible and statistically significant. The following human tumor cell lines were used in the assay: A549 (non-small cell lung cancer), MCF-7 (estrogen receptor positive breast cancer), ZR-75-1 (estrogen receptor positive breast cancer), MDA MB-231 (estrogen receptor negative breast cancer), HS 587-T (estrogen receptor negative breast cancer), SK-BR-3 (estrogen receptor negative, HER-2 over-expressing breast cancer), A431 (EGFR over-expressing skin cancer), LN-CaP (AR-dependent prostate cancer), SW620 (colon cancer), PC-3 (prostate cancer), KB (nasopharyngeal carcinoma), KB-VIN (Vincristine resistant KB subline). All cell lines were obtained from the Lineberg Cancer Center (UNC-CH) or from ATCC (Rockville, Md.) and were cultured in RPMI-1640 medium supplemented with 25 mM HEPES, 0.25% sodium bicarbonate, 10% fetal bovine serum, and 100 μg/mL kanamycin.

[6] = test system: A431 (EGFR over-expressing skin cancer); assay: In vitro anticancer assay (SRB), A431; type: cell-based, human
Method: as §2, §3

[7] = test system: LN-CaP (AR-dependent prostate cancer); assay: In vitro anticancer assay (SRB), LN-CaP; type: cell-based, human; conditions: for ED50, LN-CaP: concentration that reduces cell growth by 50%, 3 days in culture, SRB
Method: as §2
as §1, with “Biological assay. All” for “All”, “cultures are” for “cultures were”, “96-well microtitre” for “96-well microtiter”, “dye. The mean ED50 is the concentration of agent that reduces cell growth by 50% under the experimental conditions and is the average from at least three independent determinations that were reproducible and statistically significant. […]” for “dye.”

[8] = test system: SW620 (colon cancer); assay: In vitro anticancer assay (SRB), SW620; type: cell-based, human
Method: as §2, §3

[9] = test system: PC-3 (prostate cancer); assay: In vitro anticancer assay (SRB), PC-3; type: cell-based, human; conditions: concentration that reduces cell growth by 50%, 3 days in culture
Method: as §1, with “In Vitro Anticancer Assay (Nakanishi, Y. et al., J. Med. Chem. 2003, 46, 3185). All” for “All”, “dye. The mean ED50 is the concentration of agent that reduces cell growth by 50% under the experimental conditions and is the average from at least three independent determinations that were reproducible and statistically significant (FIG. 2). […]” for “dye.”
(§4) Biological assay. […] The absorbency at 562 nm was measured using a microplate reader after solubilizing the bound dye. […]

[10] = test system: KB (nasopharyngeal carcinoma); assay: In vitro anticancer assay (SRB), KB; type: cell-based, human
Method: as §2, §3

[11] = test system: KB-VIN (vincristine-resistant KB subline); assay: In vitro anticancer assay (SRB), KB-VIN; type: cell-based, human; conditions: for ED50, KB-VIN: concentration that reduces cell growth by 50%, 3 days in culture, SRB
Method: as §2
as §1, with “Biological assay. All” for “All”, “cultures are” for “cultures were”, “96-well microtitre” for “96-well microtiter”, “dye. […]” for “dye.”

[12] = test system: A549 (non small cell lung cancer); assay: In vitro anticancer assay (SRB), A549; type: cell-based, human
Method: as §1, with “In Vitro Anticancer Assay (Nakanishi, Y. et al., J. Med. Chem. 2003, 46, 3185). All” for “All”, “dye. The mean ED50 is the concentration of agent that reduces cell growth by 50% under the experimental conditions and is the average from at least three independent determinations that were reproducible and statistically significant (FIG. 2). […]” for “dye.”
as §4

[13] = test system: several human cancer cell lines; assay: Cytotoxic activity against several human tumor cell lines (panel, overall statements); type: cell-based; conditions: at concentrations up to 10 μg/mL
Method: as §2
as §1, with “Biological assay. All” for “All”, “cultures are” for “cultures were”, “96-well microtitre” for “96-well microtiter”, “dye. […]” for “dye.”

[14] = test system: ER+ human breast cancer (MCF-7 and ZR-75-1); assay: Comparison of potency and selectivity against ER+ breast cancer cell lines in vitro; type: cell-based
Method: as §2
as §1, with “Biological assay. All” for “All”, “cultures are” for “cultures were”, “96-well microtitre” for “96-well microtiter”, “dye. The mean ED50 is the concentration of agent that reduces cell growth by 50% under the experimental conditions and is the average from at least three independent determinations that were reproducible and statistically significant. […]” for “dye.”

[15] = concentration that reduces cell growth by 50%, 3 days in culture, SRB
[16] = concentration that reduces cell growth by 50%, 3 days in culture, SRB, listed as Tamoxifen citrate
[17] = concentration that reduces cell growth by 50%, 3 days in culture, SRB, listed as Neo-tashinlactone (1)
[18] = against ER+ (ER+ and HER-2++) breast cancer in vitro

In the case of `CC/C(=C(\c1ccccc1)c1ccc(OCCN(C)C)cc1)c1ccccc1` [TAM, tamoxifen citrate, reference compound], the IC50 ([1]; Homo sapiens, MCF7, 72 h, concentration that reduces cell growth by 50%, 3 days in culture, SRB, read-out: ED50, MCF-7 (ER+)) is reported as 5 µg/mL, the “ED50, MCF-7 (ER+)” value [1, 15] is reported as 5.0 µg/mL and the “ED50, MCF-7 (ER+)” value [1, 16] is reported as 5.0 µg/mL. The IC50 ([2]; Homo sapiens, MDA-MB-231, 72 h, concentration that reduces cell growth by 50%, 3 days in culture, SRB, read-out: ED50, MDA-MB-231 (ER−)) was 8 µg/mL, the “ED50, MDA-MB-231 (ER−)” value [2, 16] was 7.0 µg/mL and the IC50 ([3]; Homo sapiens, ZR-75-1, 72 h, read-out: ED50, ZR-75-1 (ER+)) was 5 µg/mL. For the same compound, the “ED50, ZR-75-1 (ER+)” value ([3]; listed as Tamoxifen citrate) was 3.6 µg/mL, the “ED50, HS 587-T (ER−)” value ([4]; printed HS587-1 in Table 4) was 9 µg/mL and 7.0 µg/mL and the “ED50, HS 587-T (ER−)” value ([4]; printed HS587-1 in Table 4, listed as Tamoxifen citrate) was 8.5 µg/mL. For the same compound, the IC50 ([5]; Homo sapiens, SK-BR-3, 72 h, concentration that reduces cell growth by 50%, 3 days in culture, SRB, read-out: ED50, SK-BR-3 (ER−, HER2+)) was 5 µg/mL, the “ED50, SK-BR-3 (ER−, HER2+)” value [5, 15] was 5.0 µg/mL and the IC50 ([6]; Homo sapiens, A-431, 72 h, concentration that reduces cell growth by 50%, 3 days in culture, SRB, read-out: ED50, A431) was 7 µg/mL. For the same compound, the “ED50, A431” value [6, 15] was 7.0 µg/mL, the “ED50, LN-CaP” value [7] was 6 µg/mL and the IC50 ([8]; Homo sapiens, SW-620, 72 h, concentration that reduces cell growth by 50%, 3 days in culture, SRB, read-out: ED50, SW620) was 4 µg/mL. The “ED50, SW620” value [8, 15] was 4.0 µg/mL, the “ED50, PC-3” value [9] was 10 µg/mL and the IC50 ([10]; Homo sapiens, 72 h, concentration that reduces cell growth by 50%, 3 days in culture, SRB, read-out: ED50, KB) was 9 µg/mL. The “ED50, KB” value [10, 15] was 9.0 µg/mL and the “ED50, KB-VIN” value [11] was 9 µg/mL.

`Cc1cccc2c1ccc1c3occ(C)c3c(=O)oc21` [Compound 1, Neo-tanshinlactone] was tested, and the “Percent inhibition at the test concentration (bracketed value), MCF-7” value ([1]; at 2.5 μg/mL (Table 1)) was 57%, the “ED50, MCF-7 (ER+)” value [1, 15] was 0.6 µg/mL and 0.60 µg/mL and the “ED50, MCF-7 (ER+)” value [1, 17] was under 2.5 µg/mL. The “concentration at which active against MCF-7” value ([1]; first screen, Example 1) was 0.6˜1.2 μg/mL, the “Percent inhibition at the test concentration (bracketed value), MDA-MB-231” value ([2]; at 20 μg/mL (Table 1)) was 17% and the “ED50, MDA-MB-231 (ER−)” value [2, 15] was 10 µg/mL and 10.0 µg/mL. For the same compound, the “ED50, MDA-MB-231 (ER−)” value [2, 17] was over 20 µg/mL, the “ED50, ZR-75-1 (ER+)” value [3] was 0.25 µg/mL (≈ 0.946 µM) and the “ED50, HS 587-T (ER−)” value ([4]; printed HS587-1 in Table 4) was 16 µg/mL and 16.0 µg/mL. For the same compound, the “activity against SK-BR-3 (in words)” value ([5]; HER-2-overexpressing breast cancer cell line) was “active”, the “ED50, SK-BR-3 (ER−, HER2+)” value [5, 15] was 0.2 µg/mL and 0.18 µg/mL and the “fold more sensitive, SK-BR-3 versus MCF-7” value ([5]; ratio of sensitivity of the two cell lines) was 3 fold. The “activity against A431 (in words)” value ([6]; EGFR overexpressing skin cancer cell line) was “essentially inactive”, the “Percent inhibition at the test concentration (bracketed value), A431” value ([6]; at 10 μg/mL (Table 2)) was 35% and the “ED50, A431” value [6, 15] was over 10 µg/mL. The “activity against LN-CaP (in words)” value ([7]; AR-dependent prostate cancer cell line) was “essentially inactive”, the “Percent inhibition at the test concentration (bracketed value), LN-CaP” value ([7]; at 10 μg/mL (Table 2)) was 28-36% and the “ED50, LN-CaP” value [7] was over 10 µg/mL. The “Percent inhibition at the test concentration (bracketed value), SW620” value ([8]; at 10 μg/mL (Table 2)) was 22%, the “ED50, SW620” value [8, 15] was over 10 µg/mL and the “ED50, PC-3” value [9] was 10 µg/mL (≈ 37.8 µM). The “Percent inhibition at the test concentration (bracketed value), KB” value ([10]; at 10 μg/mL (Table 2)) was 18%, the “ED50, KB” value [10, 15] was over 10 µg/mL and the “Percent inhibition at the test concentration (bracketed value), KB-VIN” value ([11]; at 10 μg/mL (Table 2)) was 9%. For the same compound, the “ED50, KB-VIN” value [11] was over 10 µg/mL, the “Percent inhibition at the test concentration (bracketed value), A549” value ([12]; at 20 μg/mL (Table 1)) was 10% and the “ED50, A549” value [12, 15] was over 20 µg/mL. For the same compound, the “activity against other cell lines in the panel (in words)” value [13] was “insignificant activity”, the “fold more potent than tamoxifen citrate” value [14, 18] was 10 fold and the “fold more selective than tamoxifen citrate” value [14, 18] was 20 fold. For the same compound, the “times better activity than compound 2a and tamoxifen” value ([14]; against ER+ cell lines) was 10 times.

From patent US7795299B2, “Neo-tanshinlactone and analogs as potent and selective anti-breast cancer agents” (The University of North Carolina at Chapel Hill, priority 2004, dated 2010)
